What was measured:
[1] = molecular target: T1, topoisomerase I (Homo sapiens, UniProt P11387); conditions: reference: Ogitani Y. et al., Clinical Cancer Research 2016; cited from earlier work
T1 sequence (P11387 1-765): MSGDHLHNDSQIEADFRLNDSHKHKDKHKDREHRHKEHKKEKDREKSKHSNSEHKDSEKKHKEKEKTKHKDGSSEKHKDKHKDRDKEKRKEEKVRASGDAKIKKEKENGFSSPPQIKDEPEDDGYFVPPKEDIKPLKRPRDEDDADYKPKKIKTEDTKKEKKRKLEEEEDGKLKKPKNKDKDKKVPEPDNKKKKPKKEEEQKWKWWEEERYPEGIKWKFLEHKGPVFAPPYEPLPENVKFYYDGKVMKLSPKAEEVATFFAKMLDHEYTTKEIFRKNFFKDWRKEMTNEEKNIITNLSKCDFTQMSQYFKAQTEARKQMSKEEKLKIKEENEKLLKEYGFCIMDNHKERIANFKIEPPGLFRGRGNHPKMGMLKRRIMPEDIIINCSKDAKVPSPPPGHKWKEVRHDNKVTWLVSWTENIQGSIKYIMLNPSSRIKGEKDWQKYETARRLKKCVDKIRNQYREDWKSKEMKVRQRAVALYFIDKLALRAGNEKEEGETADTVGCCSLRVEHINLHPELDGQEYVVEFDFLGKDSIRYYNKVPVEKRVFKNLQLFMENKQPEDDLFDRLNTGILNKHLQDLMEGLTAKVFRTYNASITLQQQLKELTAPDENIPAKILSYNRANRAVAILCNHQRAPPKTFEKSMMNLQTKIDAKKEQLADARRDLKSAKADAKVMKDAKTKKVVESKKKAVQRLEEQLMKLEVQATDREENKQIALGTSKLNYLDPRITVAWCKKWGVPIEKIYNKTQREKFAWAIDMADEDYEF

[2] = system: NCI-H358 cells; assay: Antitumor test (1): NCI-H358 cells subcutaneously transplanted into nude mice; conditions: for notable findings such as weight reduction: NCI-H358 xenograft nude mice, HER3-ADC (1) 3 mg/kg iv and/or RASG12C inhibitor 10 mg/kg orally, 3 weeks
Procedure: Mouse: Female BALB/c nude mice of 5 to 6 week-old (Charles River Laboratories Japan, Inc.) were used in an experiment.
Measurement and calculation formula: In all studies, the long diameter and the short diameter of a tumor were measured with an electronic digital caliper (CD-15CX, Mitutoyo Corporation) twice a week to calculate the tumor volume (mm^3). The calculation formula was as follows: […]
HER3-ADC (1) was diluted with ABS buffer (10 mM acetate buffer (pH 5.5), 5% sorbitol), and the resultant liquid was administered in an amount of 10 mL/kg to the tail vein.
Sotorasib was dissolved in 2% hydroxypropyl methylcellulose and 1% Tween 80, and the resultant liquid was orally administered in an amount of 10 mL/kg. […] NCI-H358 cells, that is, human lung cancer line purchased from ATCC (American Type Culture Collection) were suspended in 50% Matrigel matrix (Invitrogen), and 3×10^6 cells thus obtained were subcutaneously transplanted into a right side portion of the body of each of the female nude mice, and the resultant mice were randomly grouped 13 days after the transplantation (Day 0). HER3-ADC (1) was administered to the tail vein at a dose of 3 mg/kg on Day 0, Day 7, and Day 14. The RASG12C inhibitors were administered at a dose of 10 mg/kg for 3 weeks once a day and five times a week. Groups each given one of these agents, a group given both, and a solvent administration group as a control group were established.

| Compound | topoisomerase I inhibitory effect [1] | notable findings such as weight reduction [2] | tumor growth inhibition (TGI), single administration of RASG12C inhibitor ([2]; NCI-H358 xenograft, female nude mice, 10 mg/kg orally once a day, five times a week for 3 weeks, final day of the test) | tumor growth inhibition (TGI), single administration of HER3-ADC (1) ([2]; NCI-H358 xenograft, female nude mice, 3 mg/kg tail vein on Day 0, Day 7 and Day 14, final day of the test) |
| --- | --- | --- | --- | --- |
| CC[C@@]1(O)C(=O)OCc2c1cc1n(c2=O)Cc2c-1nc1cc(F)c(C)c3c1c2[C@@H](NC(=O)CO)CC3 | confirmed to have topoisomerase I inhibitory effect | – | – | – |
| C=CC(=O)N1CCN(c2nc(=O)n(-c3c(C)ccnc3C(C)C)c3nc(-c4c(O)cccc4F)c(F)cc23)[C@@H](C)C1 [sotorasib] | – | anal prolapse | 39% | – |
| HER3-ADC (1): anti-HER3 antibody (heavy chain SEQ ID NO: 1, light chain SEQ ID NO: 2) conjugated to exatecan-derivative drug-linker via thioether bond; average drug-to-antibody ratio 7.6 | – | No notable findings such as weight reduction | – | 68% |

From US20260158157A1, “COMBINATION OF ANTI-HER3 ANTIBODY-DRUG CONJUGATE AND RASG12C INHIBITOR” (DAIICHI SANKYO COMPANY, LIMITED, priority 2023, published 2026)
